From PubChem BioAssay (NCI)
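Values below derive from 48-hour exposures of cells grown in 96-well plates, with endpoints linearly interpolated between the two concentrations bracketing the appropriate inhibition level. At the GI50, growth is halved. TGI: concentration producing complete growth inhibition.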

How the values were obtained:
Assay in all cases: NCI anticancer screen, dose series, 48 h
KM12 colon = system: KM12 colon
U251 CNS = system: U251 CNS
T-47D breast = system: T-47D breast
SF-268 CNS = system: SF-268 CNS
A498 renal = system: A498 renal
EKVX NSCLC = system: EKVX NSCLC
SK-MEL-5 melanoma = system: SK-MEL-5 melanoma
ACHN renal = system: ACHN renal
LOX IMVI melanoma = system: LOX IMVI melanoma
OVCAR-5 ovarian = system: OVCAR-5 ovarian
PC-3 prostate = system: PC-3 prostate
HL-60(TB) leukemia = system: HL-60(TB) leukemia
MDA-MB-435 = system: MDA-MB-435
SK-MEL-2 melanoma = system: SK-MEL-2 melanoma
SNB-75 CNS = system: SNB-75 CNS
COLO 205 colon = system: COLO 205 colon
K-562 leukemia = system: K-562 leukemia
A549 NSCLC = system: A549 NSCLC
DU-145 prostate = system: DU-145 prostate
HCT-116 colon = system: HCT-116 colon
SW-620 colon = system: SW-620 colon
OVCAR-4 ovarian = system: OVCAR-4 ovarian
786-0 renal = system: 786-0 renal
RXF 393 renal = system: RXF 393 renal
NCI-H226 lung = system: NCI-H226 lung
IGROV1 ovarian = system: IGROV1 ovarian
HCC-2998 colon = system: HCC-2998 colon
OVCAR-8 ovarian = system: OVCAR-8 ovarian
CAKI-1 renal = system: CAKI-1 renal
TK-10 renal = system: TK-10 renal
SK-OV-3 ovarian = system: SK-OV-3 ovarian
BT-549 breast = system: BT-549 breast
SK-MEL-28 melanoma = system: SK-MEL-28 melanoma
SNB-19 CNS = system: SNB-19 CNS
RPMI-8226 leukemia = system: RPMI-8226 leukemia
HOP-62 NSCLC = system: HOP-62 NSCLC
HS 578T breast = system: HS 578T breast
MALME-3M melanoma = system: MALME-3M melanoma
UACC-62 melanoma = system: UACC-62 melanoma
HT29 colon = system: HT29 colon
OVCAR-3 ovarian = system: OVCAR-3 ovarian
SF-295 CNS = system: SF-295 CNS
M14 melanoma = system: M14 melanoma
MDA-MB-231 breast = system: MDA-MB-231 breast
HCT-15 colon = system: HCT-15 colon
NCI-H522 lung = system: NCI-H522 lung
HOP-92 NSCLC = system: HOP-92 NSCLC
SF-539 CNS = system: SF-539 CNS
SR leukemia = system: SR leukemia
NCI-H460 lung = system: NCI-H460 lung
UO-31 renal = system: UO-31 renal
NCI/ADR-RES ovarian = system: NCI/ADR-RES ovarian
UACC-257 melanoma = system: UACC-257 melanoma
MCF7 breast = system: MCF7 breast
CCRF-CEM leukemia = system: CCRF-CEM leukemia

Cc1ccc2c(n1)C(=O)C(Cl)=C(Nc1ccccc1C(=O)OC(C)(C)C)C2=O
GI50 (KM12 colon): 6.07 µM | TGI (KM12 colon): 50.4 µM | GI50 (U251 CNS): 2.42 µM | TGI (U251 CNS): 6.81 µM | GI50 (T-47D breast): 1.84 µM | TGI (T-47D breast): 4.91 µM | GI50 (SF-268 CNS): 3.06 µM | TGI (SF-268 CNS): 14.7 µM | GI50 (A498 renal): 12.4 µM | TGI (A498 renal): 47.8 µM | GI50 (EKVX NSCLC): 1.59 µM | TGI (EKVX NSCLC): 3.01 µM | GI50 (SK-MEL-5 melanoma): 1.59 µM | TGI (SK-MEL-5 melanoma): 2.98 µM | GI50 (ACHN renal): 1.75 µM | TGI (ACHN renal): 3.14 µM | GI50 (LOX IMVI melanoma): 1.02 µM | TGI (LOX IMVI melanoma): 2.31 µM | GI50 (OVCAR-5 ovarian): 2.05 µM | TGI (OVCAR-5 ovarian): 4.1 µM | GI50 (PC-3 prostate): 1.78 µM | TGI (PC-3 prostate): 4.19 µM | GI50 (HL-60(TB) leukemia): 0.394 µM | TGI (HL-60(TB) leukemia): 1.9 µM | GI50 (MDA-MB-435): 1.71 µM | TGI (MDA-MB-435): 3.19 µM | GI50 (SK-MEL-2 melanoma): 2.27 µM | TGI (SK-MEL-2 melanoma): 6.78 µM | GI50 (SNB-75 CNS): 14.7 µM | TGI (SNB-75 CNS): > 100 µM | GI50 (COLO 205 colon): 1.77 µM | TGI (COLO 205 colon): 3.48 µM | GI50 (K-562 leukemia): 0.549 µM | TGI (K-562 leukemia): > 100 µM | GI50 (A549 NSCLC): 44.5 µM | TGI (A549 NSCLC): > 100 µM | GI50 (DU-145 prostate): 1.77 µM | TGI (DU-145 prostate): 3.32 µM | GI50 (HCT-116 colon): 1.61 µM | TGI (HCT-116 colon): 3.15 µM | GI50 (SW-620 colon): 1.84 µM | TGI (SW-620 colon): 6.26 µM | GI50 (OVCAR-4 ovarian): 1.4 µM | TGI (OVCAR-4 ovarian): 2.78 µM | GI50 (786-0 renal): 1.69 µM | TGI (786-0 renal): 3.22 µM | GI50 (RXF 393 renal): 1.62 µM | TGI (RXF 393 renal): 2.99 µM | GI50 (NCI-H226 lung): 6.77 µM | TGI (NCI-H226 lung): > 100 µM | GI50 (IGROV1 ovarian): 1.73 µM | TGI (IGROV1 ovarian): 3.43 µM | GI50 (HCC-2998 colon): 1.75 µM | TGI (HCC-2998 colon): 3.27 µM | GI50 (OVCAR-8 ovarian): 2.83 µM | TGI (OVCAR-8 ovarian): 9.32 µM | GI50 (CAKI-1 renal): 1.55 µM | TGI (CAKI-1 renal): 2.9 µM | GI50 (TK-10 renal): 1.81 µM | TGI (TK-10 renal): 3.28 µM | GI50 (SK-OV-3 ovarian): > 100 µM | TGI (SK-OV-3 ovarian): > 100 µM | GI50 (BT-549 breast): 2.9 µM | TGI (BT-549 breast): 9.04 µM | GI50 (SK-MEL-28 melanoma): 1.66 µM | TGI (SK-MEL-28 melanoma): 3.12 µM | GI50 (SNB-19 CNS): 3.3 µM | TGI (SNB-19 CNS): 15.4 µM | GI50 (RPMI-8226 leukemia): 1.78 µM | TGI (RPMI-8226 leukemia): 5.9 µM | GI50 (HOP-62 NSCLC): 3.59 µM | TGI (HOP-62 NSCLC): 18.3 µM | GI50 (HS 578T breast): 2.39 µM | TGI (HS 578T breast): 7.54 µM | GI50 (MALME-3M melanoma): 1.66 µM | TGI (MALME-3M melanoma): 3.27 µM | GI50 (UACC-62 melanoma): 1.82 µM | TGI (UACC-62 melanoma): 3.98 µM | GI50 (HT29 colon): 2.94 µM | TGI (HT29 colon): 8.52 µM | GI50 (OVCAR-3 ovarian): 1.31 µM | TGI (OVCAR-3 ovarian): 2.96 µM | GI50 (SF-295 CNS): 4.25 µM | TGI (SF-295 CNS): 22.5 µM | GI50 (M14 melanoma): 1.73 µM | TGI (M14 melanoma): 3.38 µM | GI50 (MDA-MB-231 breast): 1.58 µM | TGI (MDA-MB-231 breast): 3.26 µM | GI50 (HCT-15 colon): 1.37 µM | TGI (HCT-15 colon): 3.32 µM | GI50 (NCI-H522 lung): 1.83 µM | TGI (NCI-H522 lung): 3.86 µM | GI50 (HOP-92 NSCLC): 1.53 µM | TGI (HOP-92 NSCLC): 2.89 µM | GI50 (SF-539 CNS): 1.7 µM | TGI (SF-539 CNS): 3.18 µM | GI50 (SR leukemia): 0.442 µM | TGI (SR leukemia): 7.86 µM | GI50 (NCI-H460 lung): 3.08 µM | TGI (NCI-H460 lung): 11.3 µM | GI50 (UO-31 renal): 1.42 µM | TGI (UO-31 renal): 2.74 µM | GI50 (NCI/ADR-RES ovarian): 2.17 µM | TGI (NCI/ADR-RES ovarian): 5.35 µM | GI50 (UACC-257 melanoma): 1.69 µM | TGI (UACC-257 melanoma): 3.3 µM | GI50 (MCF7 breast): 0.813 µM | TGI (MCF7 breast): 3.58 µM | GI50 (CCRF-CEM leukemia): 0.425 µM | TGI (CCRF-CEM leukemia): > 100 µM
